Measurements reported in US10881679B2, “Application of a phillyrin/phillygeninin composition in preparing a medicine or health care product for alleviating or/and treating viral diseases, and medicine or health care product for treating viral diseases” (priority 2014, dated 2021).
Marks after values point to notes of the source that are not given here.

Legend:
[1] = tested on: rat paw swelling induced by carrageenin; assay: Rat paw swelling induced by carrageenin; type: in vivo, Wistar rats; conditions: 100 mg/kg
Method: Each group has 10 rats. Rats in each group were all administered by […] through the sublingual vein. Normal volume of the right hind paw of each rat in each group was measured in capillary magnification measurement method. In order to avoid errors, the measurement should be carried out in a fixed position and operated by the same person before and after administration. A mean of the two measurement values was taken as the normal volume of the right hind paw of a rat before administration. […] The difference between the groups was compared by inter-group t test processing through the difference percentage (swelling ratio) of the paw volume before and after the induced rat inflammation. [formula] Results

[2] = tested on: rat fever induced by beer yeast; assay: Rat fever induced by beer yeast (Saccharomyces cerevisiae); type: in vivo, Wistar rats; conditions: 100 mg/kg i.g.
Method: Male Wistar rats with a weight of 180˜200 g were used. Normal anal temperature of each rat was measured twice (at a certain interval) with a WSC-411P portable digital thermometer, and a mean of the two measurement values was taken as a normal body temperature of the rat. Then, 300 rats with body temperature at 36.5˜38° C. were selected and randomly divided into 30 groups by weight: model groups (0.5% methyl cellulose), phillyrin/phillygeninin compositions A and B that are divided into low, medium and high dose groups (2.5, 5, 10 mg/kg) respectively, phillyrin groups (13 mg/kg), phillygeninin groups (13 mg/kg), and positive drug paracetamol groups (100 mg/kg). Each group has 10 rates, and the test is repeated 3 times for each group. 10 mL/kg of 10% fresh Saccharomyces cerevisiae suspension was subcutaneously injected to the back of the rats of each group to induce fever. After administration of 10% fresh Saccharomyces cerevisiae suspension for 6.0 h, the phillyrin/phillygeninin composition and the paracetamol positive drug were administered by intragastric administration, and the same volume of 0.5% methyl cellulose is administrated to the model group by intragastric administration. Rectal temperatures were respectively measured at 1, 2, 3 and 4 h after the administration. Changes in the body temperature were observed and difference between the groups was compared by inter-group t test processing through antipyretic percentage. The above test was repeated totally 3 times.

[3] = tested on: rabbit fever induced by typhoid and paratyphoid vaccine; assay: Rabbit fever induced by typhoid and paratyphoid vaccine; type: in vivo, Japanese big-ear white rabbits; conditions: 50 mg/kg i.g.
Method: Male Japanese big-ear white rabbits with a weight 1.5˜2.0 kg were used. Before the test, WSC-411P portable digital thermometer was used to measure the normal rectal temperature twice (with certain interval for each time), and the average value was taken as the normal body temperature of rabbits. […] Each group has 6 rabbits, and the test was repeated 3 times for each group. Rabbits were fixed into a fixator. The blank control group was intravenously injected with normal saline of 1 ml/kg via the ear margin; The model control group and each drug group were intravenously injected with typhoid and paratyphoid vaccines of 0.8 ml/kg via the ear margin. After the body temperatures of the rabbits increased by 1° C. or more (requiring about 1˜1.5 h, and this test was limited to 1 h), the blank control group and the model group were administered intragastrically with 0.5% carboxymethycellulose of 1 ml/kg, and the drug groups were administered intragastrically with phillyrin/phillygeninin compositions and paracetamol respectively. The rectal temperature was measured after administration for 30, 60, 90, 120, 180 and 240 min to observe the changes in the body temperature, and difference between the groups was compared by inter-group t test processing through antipyretic percentage.

[4] = tested on: sweat secretion of rat paws; assay: Sweat secretion of rat paws (coloring method); type: in vivo, Wistar rats; conditions: 35.0 mg/kg s.c.
Source text: The test is based on a mechanism that distribution of sweat glands is present in footpads of rat paws, the amount of sweat secretion and variation thereof can be observed by using a mechanism that a purple color can be produced by contacting iodine and starch when encountered with sweat.
500 Wistar rats with equal male and female number were used, weighing of 120˜150 g. These rats were randomly divided into 50 groups by weight and gender, i.e., namely 5 groups for the control groups (0.5% methyl cellulose), 5 groups for phillyrin groups, 5 groups for phillygeninin groups, 5 groups for the low, medium and high dose groups (2.5, 5, 10 mg/kg, respectively) of phillyrin/phillygeninin compositions A and B respactively, and 5 groups for the positive drug pilocarpine groups (35 mg/kg). Each group has 10 rats, 10 groups of rates are used for each test, which has 5 time periods (1, 5, 10, 15 and 20 min). The rats were placed into a self-made rat fixation bag, and both hind limbs of the rats were exposed. Dirt on the right paws was gently cleaned away using cotton swabs containing anhydrous alcohol. Pilocarpine solution was administered by subcutaneous injection, the remaining groups were subjected to intragastric administration. At 1 h (30 min for the pilocarpine group) after administration, pre-existing sweat and sweat generated due to struggle on the right paw of each rat in each group was gently wiped away with dry cotton swabs, then the paws were coated with solution A (dissolving 2 g iodine in 100 ml anhydrous alcohol) of Hetian-gaoyuanshi's reagent. After complete dryness, the paws were thinly coated with solution B (uniform mixture of 50 g soluble starch and 100 ml castor oil) of Hetian-gaoyuanshi's reagent. The color and number of dark purple coloring spots (i.e. sweat spots) were carefully observed at 1, 5, 10, 15 and 20 min after the coating of the solution B respectively with magnifying glass. After the test was completed, statistical treatment was performed according to the rank sum test with two-sample comparison, thereby comparing the differences among the various groups.

[5] = tested on: sweat gland epithelial cells of rat paws; assay: Sweat secretion of rat paws (histomorphological observation method); type: in vivo, Wistar rats; conditions: 35.0 mg/kg s.c., 30 min after administration
Source text: This test is based on a mechanism that when a rat is in an excited state, in addition to the increase of sweat secretion of sweat glands, the morphology of sweat gland epithelial cells changes accordingly. Under an optical microscope, it can be seen that the sweat gland epithelial cell vacuoles increase in number and expand. Under an electron microscope, such expanded vacuoles appear to be mitochondria in the sweat gland epithelial cell swelling, breakage and fusion and expansion of secretory vesicle. Therefore, through histomorphological observation of sweat gland epithelial tissue of a rat paw, secretory activities of the sweat gland can be known.
300 Wistar rats with equal male and female number, weighing 120˜160 g were used. These rats were randomly divided into 30 groups by weight and gender: control groups (0.5% of methyl cellulose), phillygeninin groups, phillyrin groups, low, medium and high dose groups (2.5, 5, 10 mg/kg) of phillyrin/phillygeninin compositions A and B separately, and positive drug pilocarpine groups (35 mg/kg). Each group has 10 rats, the test is repeated 3 times for each group. Pilocarpine solution was administered by subcutaneous injection, the remaining groups were subjected to intragastric administration. After administration of the 0.5% of methyl cellulose in the control group for one hour, after administration of the pilocarpine in the positive drug group for 30 min, and after administration of the phillyrin, the phillygeninin and the phillyrin/phillygeninin composition for one hour, the right hind limb was instantly cut off at the ankle joint to immediately take down the footpad of the right hind limb and placed into 10% of formaldehyde solution. The footpads were fixed, dehydrated, embedded, sliced and stained with HE by using conventional methods. Changes in sweat gland epithelial cells of the rat paws from each group were observed under an optical microscope, to mainly observe the percentage of vacuolization. The differences among the various groups was performed through X^2 test for statistical analysis. The above test was repeated 3 times. Percentage of vacuolization=(the number of vacuolized sweat glands)/(the number of sweat glands observed)×100%.

influenza virus [6] = assay: Impact on virus-induced cytopathic effect in Vero cells (MTT): influenza virus; type: cell-based; conditions: influenza virus 100TCID50, Vero, 72 h; drug g/L (Table 1-2): phillyrin 0.01, Phillygeninin 0.02, compositions A, B 0.01, Ribavirin 0.70, oseltamivir phosphate 0.30
parainfluenza virus [7] = assay: Impact on virus-induced cytopathic effect in Vero cells (MTT): parainfluenza virus; type: cell-based; conditions: parainfluenza virus 100TCID50, Vero, 72 h; drug g/L as Table 1-2
[8] = tested on: Coxsackievirus A16 (CoxA16); assay: Impact on virus-induced cytopathic effect in Vero cells (MTT): CoxA16; type: cell-based; conditions: CoxA16 100TCID50, Vero, 72 h; drug g/L as Table 1-2
[9] = tested on: respiratory syncytial virus (RSV); assay: Impact on virus-induced cytopathic effect in Vero cells (MTT): RSV; type: cell-based; conditions: RSV 100TCID50, Vero, 72 h; drug g/L as Table 1-2
[10] = tested on: Herpes zoster simplex viruses type I (HSV-I); assay: Impact on virus-induced cytopathic effect in Vero cells (MTT): HSV-I; type: cell-based; conditions: HSV-I 100TCID50, Vero, 72 h; drug g/L as Table 1-2
adenovirus (ADV) = assay: Impact on virus-induced cytopathic effect in Vero cells (MTT): ADV; type: cell-based; conditions: ADV 100TCID50, Vero, 72 h; drug g/L as Table 1-2
enterovirus EV71 = assay: Impact on virus-induced cytopathic effect in Vero cells (MTT): EV71; type: cell-based; conditions: EV71 100TCID50, Vero, 72 h; drug g/L as Table 1-2
[11] = tested on: Coxsackie virus B3 (CVB3); assay: Impact on virus-induced cytopathic effect in Vero cells (MTT): CVB3; type: cell-based; conditions: CVB3 100TCID50, Vero, 72 h; drug g/L as Table 1-2
influenza virus [12] = type: in vivo, Kunming mice; conditions: 58.5 mg/kg/d i.g. 5 days
parainfluenza virus [13] = type: in vivo, Kunming mice; conditions: 58.5 mg/kg/d i.g. 5 days
[14] = 10 min after coating solution B
[15] = 15 min after coating solution B
[16] = 20 min after coating solution B

CC(=O)Oc1ccccc1C(=O)O [Aspirin]
Swelling percentage (%) ([1]; 15 min after inflammation induction): 8.90 ± 6.70 %
Swelling percentage (%) ([1]; 30 min after inflammation induction): 15.6 ± 12.2 %
Swelling percentage (%) ([1]; 60 min after inflammation induction): 20.3 ± 10.9 %
Swelling percentage (%) ([1]; 120 min after inflammation induction): 21.6 ± 12.1 %
Swelling percentage (%) ([1]; 180 min after inflammation induction): 26.1 ± 21.1 %
Swelling percentage (%) ([1]; 240 min after inflammation induction): 26.1 ± 16.3 %
Swelling percentage (%) ([1]; 300 min after inflammation induction): 34.9 ± 14.6 %
Swelling percentage (%) ([1]; 360 min after inflammation induction): 31.9 ± 12.2 %

CC(=O)Nc1ccc(O)cc1 [Paracetamol]
Body temperature ([2]; 1 h after administration): 38.66 ± 0.59 °C
antipyretic percentage (%) ([2]; 1 h after administration): −2.07 ± 0.54 %
Body temperature ([2]; 2 h after administration): 38.19 ± 0.59 °C
antipyretic percentage (%) ([2]; 2 h after administration): −3.27 ± 0.77 %
Body temperature ([2]; 3 h after administration): 37.98 ± 0.19 °C
antipyretic percentage (%) ([2]; 3 h after administration): −3.80 ± 1.43 %
Body temperature ([2]; 4 h after administration): 37.84 ± 0.32 °C
antipyretic percentage (%) ([2]; 4 h after administration): −4.15 ± 1.59 %
Body temperature ([3]; 30 min after administration): 40.53 ± 0.65 °C
antipyretic percentage (%) ([3]; 30 min after administration): −1.14 ± 0.56%
Body temperature ([3]; 60 min after administration): 40.10 ± 0.49 °C
antipyretic percentage (%) ([3]; 60 min after administration): −2.18 ± 0.17%
Body temperature ([3]; 90 min after administration): 39.83 ± 0.58 °C
antipyretic percentage (%) ([3]; 90 min after administration): −2.83 ± 0.15%
Body temperature ([3]; 120 min after administration): 39.72 ± 0.56 °C
antipyretic percentage (%) ([3]; 120 min after administration): −3.11 ± 0.20%
Body temperature ([3]; 180 min after administration): 39.61 ± 0.41 °C
antipyretic percentage (%) ([3]; 180 min after administration): −3.38 ± 0.22%
Body temperature ([3]; 240 min after administration): 39.53 ± 0.47 °C
antipyretic percentage (%) ([3]; 240 min after administration): −3.58 ± 0.38%

CC[C@@H]1C(=O)OC[C@@H]1Cc1cncn1C [Pilocarpine]
Animal number of sweat spots of level + ([4]; 1 min after coating solution B): 1 rats
Animal number of sweat spots of level ++ ([4]; 1 min after coating solution B): 3 rats
Animal number of sweat spots of level +++ ([4]; 1 min after coating solution B): 1 rats
Animal number of sweat spots of level ++++ ([4]; 1 min after coating solution B): 5 rats
Animal number of sweat spots of level − ([4]; 1 min after coating solution B): 0 rats
Animal number of sweat spots of level + ([4]; 5 min after coating solution B): 1 rats
Animal number of sweat spots of level ++ ([4]; 5 min after coating solution B): 2 rats
Animal number of sweat spots of level +++ ([4]; 5 min after coating solution B): 1 rats
Animal number of sweat spots of level ++++ ([4]; 5 min after coating solution B): 6 rats
Animal number of sweat spots of level − ([4]; 5 min after coating solution B): 0 rats
Animal number of sweat spots of level + [4, 14]: 0 rats
Animal number of sweat spots of level ++ [4, 14]: 2 rats
Animal number of sweat spots of level +++ [4, 14]: 1 rats
Animal number of sweat spots of level ++++ [4, 14]: 6 rats
Animal number of sweat spots of level − [4, 14]: 0 rats
Animal number of sweat spots of level + [4, 15]: 0 rats
Animal number of sweat spots of level ++ [4, 15]: 2 rats
Animal number of sweat spots of level +++ [4, 15]: 1 rats
Animal number of sweat spots of level ++++ [4, 15]: 6 rats
Animal number of sweat spots of level − [4, 15]: 0 rats
Animal number of sweat spots of level + [4, 16]: 0 rats
Animal number of sweat spots of level ++ [4, 16]: 2 rats
Animal number of sweat spots of level +++ [4, 16]: 1 rats
Animal number of sweat spots of level ++++ [4, 16]: 6 rats
Animal number of sweat spots of level − [4, 16]: 0 rats
Number of sweat glands of vacuole [5]: 57
percentage of vacuolization (%) [5]: 27.40*** %

NC(=O)c1ncn([C@@H]2O[C@H](CO)[C@@H](O)[C@H]2O)n1 [Ribavirin]
antiviral effective rate (ER %) (influenza virus [6]): 57.49** %
antiviral effective rate (ER %) (parainfluenza virus [7]): 91.56** %
antiviral effective rate (ER %) [8]: 0.70%
antiviral effective rate (ER %) [9]: 50.08* %
antiviral effective rate (ER %) [10]: 62.92** %
antiviral effective rate (ER %) (adenovirus (ADV)): 0.43%
antiviral effective rate (ER %) (enterovirus EV71): 4.25%
antiviral effective rate (ER %) [11]: 13.44%
Hemagglutination titer (InX) (influenza virus [12]): 21.91 ± 1.050
Inhibition rate (%) of hemagglutination titer (influenza virus [12]): 32.39%
Hemagglutination titer (InX) (parainfluenza virus [13]): 23.22
Inhibition rate (%) of hemagglutination titer (parainfluenza virus [13]): 29.86%
